Columns and labels:
[1] = biological target: Delta-type opioid receptor (Rattus norvegicus, UniProt P33533); assay: Inhibition of binding of [3H]-DPDPE to opioid receptor delta 1 from rat brain membrane.
Mu-type opioid receptor = Mu-type opioid receptor (Rattus norvegicus, UniProt P33535); assay: Inhibition of binding of [3H]DAMGO to opioid receptor mu 1 from rat brain membrane.
Chain of Mu-type opioid receptor (P33535 whole entry): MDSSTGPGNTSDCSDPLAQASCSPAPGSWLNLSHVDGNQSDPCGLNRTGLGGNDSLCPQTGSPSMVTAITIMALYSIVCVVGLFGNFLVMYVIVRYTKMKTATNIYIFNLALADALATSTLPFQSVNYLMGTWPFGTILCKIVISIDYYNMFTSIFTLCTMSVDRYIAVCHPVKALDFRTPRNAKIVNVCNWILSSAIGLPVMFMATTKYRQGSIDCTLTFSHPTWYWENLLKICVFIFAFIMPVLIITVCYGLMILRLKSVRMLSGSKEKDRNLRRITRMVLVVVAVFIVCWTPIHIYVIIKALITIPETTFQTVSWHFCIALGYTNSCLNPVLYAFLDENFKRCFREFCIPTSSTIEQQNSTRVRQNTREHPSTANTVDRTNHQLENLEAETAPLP

Chain of Delta-type opioid receptor (P33533 whole entry): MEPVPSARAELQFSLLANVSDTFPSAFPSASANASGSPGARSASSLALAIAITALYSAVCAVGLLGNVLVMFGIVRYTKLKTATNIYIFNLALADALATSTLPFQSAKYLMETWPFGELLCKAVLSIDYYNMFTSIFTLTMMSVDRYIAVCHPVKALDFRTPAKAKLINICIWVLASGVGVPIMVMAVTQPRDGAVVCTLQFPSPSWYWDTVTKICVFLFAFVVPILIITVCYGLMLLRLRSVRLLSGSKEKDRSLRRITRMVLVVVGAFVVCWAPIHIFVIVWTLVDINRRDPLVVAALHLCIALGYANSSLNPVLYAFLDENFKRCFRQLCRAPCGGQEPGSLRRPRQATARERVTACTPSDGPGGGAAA

SMILES	Ki [1]	Ki (Mu-type opioid receptor)
C=CCN1CCN(/C(=N\c2ccccc2Cl)c2ccc(C(=O)N(CC)CC)cc2)CC1	20.5 nM	7600 nM
C=CCN1C[C@H](C)N(/C(=N\c2ccccc2)c2ccc(C(=O)OC)cc2)C[C@H]1C	405 nM	
CCN(CC)C(=O)c1ccc(/C(=N/c2ccccc2Cl)N2CCN(CCOC)CC2)cc1	53.5 nM	> 10000 nM
CCN1CCN(/C(=N\c2ccccc2)c2ccc(C(=O)N(CC)CC)cc2)CC1	16 nM	1000 nM
COC(=O)c1ccc(/C(=N/c2ccccc2)N2CCCN(CCc3ccccc3)CC2)cc1	820 nM	232 nM
CCN1CCN(/C(=N\c2cccc(Cl)c2)c2ccc(C(=O)N(CC)CC)cc2)CC1	63 nM	> 1000 nM
COC(=O)c1ccc(/C(=N/c2ccccc2Cl)N2CCCN(CCc3ccccc3)CC2)cc1	101 nM	197 nM
CCCN1CCN(/C(=N\c2ccccc2Cl)c2ccc(C(=O)OC)cc2)CC1	87.3 nM	2070 nM
CCN(CC)C(=O)c1ccc(/C(=N/c2ccccc2C(F)(F)F)N2CCN(Cc3ccccc3)CC2)cc1	1.22 nM	1200 nM
CCCN(CCC)C(=O)c1ccc(/C(=N/c2ccccc2OC)N2CCN(CC)CC2)cc1	1020 nM	3910 nM
CCN(CC)C(=O)c1ccc(/C(=N/c2ccccc2)N2CCCN(CCc3ccccc3)CC2)cc1	543 nM	396 nM
CCCN(CCC)C(=O)c1ccc(/C(=N/c2ccccc2Cl)N2CCN(CC)CC2)cc1	292 nM	3930 nM
CCN1CCN(/C(=N\c2ccccc2Cl)c2ccc(C(=O)OC)cc2)CC1	222 nM	> 1000 nM
CCN1CCN(/C(=N\c2cccc(Br)c2)c2ccc(C(=O)N(CC)CC)cc2)CC1	57.6 nM	> 10000 nM
CCN(CC)C(=O)c1ccc(/C(=N/c2ccccc2Cl)N2CCN(CCc3cccs3)CC2)cc1	95.3 nM	> 10000 nM
CCN(CC)C(=O)c1ccc(/C(=N/c2ccccc2)N2CCN(Cc3ccccc3)CC2)cc1	212 nM	> 10000 nM
C=CCN1CCN(/C(=N\c2cccc(Cl)c2)c2ccc(C(=O)N(CC)CC)cc2)CC1	157 nM	> 10000 nM
CCN1CCN(/C(=N\c2cc(Cl)cc(Cl)c2)c2ccc(C(=O)N(CC)CC)cc2)CC1	277 nM	> 1000 nM
CCN(CC)C(=O)c1ccc(/C(=N/c2ccc(Cl)cc2)N2CCN(Cc3ccccc3)CC2)cc1	142 nM	> 10000 nM
CCN1CCN(/C(=N\c2ccccc2F)c2ccc(C(=O)N(CC)CC)cc2)CC1	118 nM	> 1000 nM
CCN(CC)C(=O)c1ccc(/C(=N/c2ccccc2)N2CCN(CCc3cccs3)CC2)cc1	764 nM	> 10000 nM
CCN1CCN(/C(=N\c2ccccc2Cl)c2ccc(C(=O)N(CC)CC)cc2)CC1	91.1 nM	> 1000 nM
CCCN1CCN(/C(=N\c2cccc(Cl)c2)c2ccc(C(=O)N(CC)CC)cc2)CC1	177 nM	9530 nM
CCN(CC)C(=O)c1ccc(/C(=N/c2ccccc2Cl)N2CCCN(CCc3ccccc3)CC2)cc1	29.6 nM	618 nM
C=CCN1C[C@H](C)N(/C(=N\c2ccccc2)c2ccc(C(=O)N(CC)CC)cc2)C[C@H]1C	170 nM	
CCN1CCN(/C(=N\c2cccc(F)c2)c2ccc(C(=O)N(CC)CC)cc2)CC1	58.5 nM	> 10000 nM
CCN(CC)C(=O)c1ccc(/C(=N/c2ccccc2Cl)N2CCN(Cc3ccccc3)CC2)cc1	11.8 nM	> 10000 nM
CCN(CC)C(=O)c1ccc(/C(=N/c2ccccc2C(F)(F)F)N2CCN(CCc3ccccc3)CC2)cc1	545 nM	1000 nM
CCN(CC)C(=O)c1ccc(/C(=N/c2ccccc2C(F)(F)F)N2CCN(CCOC)CC2)cc1	22.9 nM	2960 nM
C=CCN1CCN(/C(=N\c2ccccc2)c2ccc(C(=O)N(CC)CC)cc2)CC1	859 nM	1000 nM
